In one assay the test system is B. cereus ATCC 11778. Kind of assay: MIC, NCCLS broth microdilution. Conditions: D = B. cereus ATCC 11778. It is filed as cell-based, Bacillus cereus. From the text:
(§1) In vitro biological activity data were collected for a variety of microorganisms, including Staphylococcus aureus (ATCC 27660, a methicillin resistant strain (MRSA); ATCC 13709, a methicillin sensitive strain (MSSA)), Enterococcus faecalis (ATCC 29212), Bacillus cereus (ATCC 11778), Streptococcus pneumoniae (ATCC 49619), Candida albicans (ATCC 38247), Escherichia coli (ATCC 25922), and Moraxella (now Branhamella) catarrhalis (ATCC 25238).
(§2) The minimal inhibition concentration (MIC) of these compounds was determined using the National Committee for Clinical Laboratory Standards (NCCLS) broth microdilution assay in microtiter plates, as set forth in: (1) the guidelines of the National Committee for Clinical Laboratory Standards (NCCLS) Document M7-A4 (NCCLS, 1997); (2) the guidelines of the National Committee for Clinical Laboratory Standards (NCCLS) Document M11-A4 (NCCLS, 1997); and (3) the guidelines and reference method of the National Committee for Clinical Laboratory Standards (NCCLS) Document M27-T (NCCLS, 1995). For antifungal assays, the method recommended in Murray, P R., 1995 Manual of Clinical Microbiology (ASM Press, Washington, DC.), was employed.
A general note: Dilution methods test growth across graded concentrations, often in twofold steps.

Assay [1] concerns M. catarrhalis (ATCC 25238). Description: MIC, NCCLS broth microdilution. Format: cell-based, Moraxella (now Branhamella) catarrhalis. Conditions: H = M. catarrhalis (ATCC 25238).
Source text: as §1, §2

Another assay concerns C. albicans ATCC 38247. Kind of assay: MIC, antifungal assay. Format: cell-based, Candida albicans. Conditions: F = C. albicans ATCC 38247.
Source text: as §1, §2

The test system of a further assay is S. pneumoniae ATCC 49619. Description: MIC, NCCLS broth microdilution. Format: cell-based, Streptococcus pneumoniae. Conditions: E = S. pneumoniae ATCC 49619.
Source text: as §1, §2

A further assay has as its system E. faecalis ATCC 29212. Description: MIC, NCCLS broth microdilution. Conditions: C = E. faecalis ATCC 29212. Format: cell-based, Enterococcus faecalis.
Source text: as §1, §2

A further assay has as its system E. coli ATCC 25922. Kind of assay: MIC, NCCLS broth microdilution. Conditions: G = E. coli ATCC 25922. Format: cell-based, Escherichia coli.
Source text: as §1, §2

A further assay has as its system S. aureus ATCC 27660. Kind of assay: MIC, NCCLS broth microdilution. Format: cell-based, Staphylococcus aureus. Conditions: B = S. aureus ATCC 27660 (MRSA).
Source text: as §1, §2

In the next assay the test system is S. aureus ATCC 13709. Description: MIC, NCCLS broth microdilution. It is filed as cell-based, Staphylococcus aureus. Conditions: A = S. aureus ATCC 13709 (MSSA).
Source text: as §1, §2

The values that follow come from patent US7642245B2, “Antibacterial compounds having a (pyrrole carboxamide)-(benzamide)-(imidazole carboxamide) motif” (Oscient Pharmaceuticals Corporation, priority 2002, dated 2010).

Consider `Cn1cc(NC(=O)c2cc3ccccc3cn2)cc1C(=O)Nc1ccc(C(=O)Nc2cn(C)c(C(=O)NCCN3CCC(F)(F)CC3)n2)cc1` [Compound A-11], for which the “Minimum Inhibitory Concentration (MIC)” value is “+++ (MIC ≦ 4 μg/mL)” with B. cereus ATCC 11778; “+++ (MIC ≦ 4 μg/mL)” in assay [1]; more than 32 µg/mL in the assay with C. albicans ATCC 38247; “+++ (MIC ≦ 4 μg/mL)” with S. pneumoniae ATCC 49619; “+++ (MIC ≦ 4 μg/mL)” with E. faecalis ATCC 29212; more than 32 µg/mL in the assay on E. coli ATCC 25922. For the same molecule, the “Minimum Inhibitory Concentration (MIC)” value in the assay on S. aureus ATCC 27660 and with S. aureus ATCC 13709 was “+++ (MIC ≦ 4 μg/mL)” in each case.
For `CN1CCN(CCNC(=O)c2nc(NC(=O)c3ccc(NC(=O)c4cc(NC(=O)c5cc6ccccc6cn5)cn4C)cc3)cn2C)CC1` [Compound A-12], the “Minimum Inhibitory Concentration (MIC)” value in the assay on B. cereus ATCC 11778 was “+++ (MIC ≦ 4 μg/mL)”; in assay [1], “+++ (MIC ≦ 4 μg/mL)”; in the assay on C. albicans ATCC 38247 it was more than 32 µg/mL; in the assay on S. pneumoniae ATCC 49619, “+++ (MIC ≦ 4 μg/mL)”; in the assay on E. faecalis ATCC 29212, “+++ (MIC ≦ 4 μg/mL)”; in the assay with E. coli ATCC 25922, more than 32 µg/mL. Moreover, the “Minimum Inhibitory Concentration (MIC)” value in the assay on S. aureus ATCC 27660 and in the assay on S. aureus ATCC 13709 was “+++ (MIC ≦ 4 μg/mL)” in each case.
Regarding `CCN1CCN(CCNC(=O)c2nc(NC(=O)c3ccc(NC(=O)c4cc(NC(=O)c5cc6ccccc6cn5)cn4C)cc3)cn2C)CC1` [Compound A-13], the “Minimum Inhibitory Concentration (MIC)” value in the assay with B. cereus ATCC 11778 is “+++ (MIC ≦ 4 μg/mL)”; in assay [1], “+++ (MIC ≦ 4 μg/mL)”; in the assay on C. albicans ATCC 38247, more than 32 µg/mL; in the assay on S. pneumoniae ATCC 49619 it was “+++ (MIC ≦ 4 μg/mL)”; in the assay with E. faecalis ATCC 29212, “+++ (MIC ≦ 4 μg/mL)”; in the assay on E. coli ATCC 25922, more than 32 µg/mL. Besides, the “Minimum Inhibitory Concentration (MIC)” value with S. aureus ATCC 27660 and with S. aureus ATCC 13709 was “+++ (MIC ≦ 4 μg/mL)” in each case.
As for `CCCCN1CCN(CCNC(=O)c2nc(NC(=O)c3ccc(NC(=O)c4cc(NC(=O)c5cc6ccccc6cn5)cn4C)cc3)cn2C)CC1` [Compound A-14], the “Minimum Inhibitory Concentration (MIC)” value in the assay on B. cereus ATCC 11778 is “+++ (MIC ≦ 4 μg/mL)”; in assay [1] it was “+++ (MIC ≦ 4 μg/mL)”; with C. albicans ATCC 38247, more than 32 µg/mL; with S. pneumoniae ATCC 49619, “+++ (MIC ≦ 4 μg/mL)”; with E. faecalis ATCC 29212, “+++ (MIC ≦ 4 μg/mL)”; in the assay on E. coli ATCC 25922, more than 32 µg/mL. The “Minimum Inhibitory Concentration (MIC)” value with S. aureus ATCC 27660 and in the assay on S. aureus ATCC 13709 was “+++ (MIC ≦ 4 μg/mL)” throughout.
`CC(C)N1CCN(CCNC(=O)c2nc(NC(=O)c3ccc(NC(=O)c4cc(NC(=O)c5cc6ccccc6cn5)cn4C)cc3)cn2C)CC1` [Compound A-15]: the “Minimum Inhibitory Concentration (MIC)” value in the assay with B. cereus ATCC 11778 is “+++ (MIC ≦ 4 μg/mL)”; in assay [1] it was “+++ (MIC ≦ 4 μg/mL)”; in the assay on C. albicans ATCC 38247, more than 32 µg/mL; with S. pneumoniae ATCC 49619 it was “+++ (MIC ≦ 4 μg/mL)”; in the assay on E. faecalis ATCC 29212 it was “+++ (MIC ≦ 4 μg/mL)”; in the assay on E. coli ATCC 25922, more than 32 µg/mL. In addition, the “Minimum Inhibitory Concentration (MIC)” value with S. aureus ATCC 27660 and in the assay on S. aureus ATCC 13709 was “+++ (MIC ≦ 4 μg/mL)” throughout.
Consider `Cn1cc(NC(=O)c2cc3ccccc3cn2)cc1C(=O)Nc1ccc(C(=O)Nc2cn(C)c(C(=O)NCCN3CCCC3)n2)cc1` [Compound A-16], for which the “Minimum Inhibitory Concentration (MIC)” value was “+++ (MIC ≦ 4 μg/mL)” in the assay with B. cereus ATCC 11778; “+++ (MIC ≦ 4 μg/mL)” in assay [1]; more than 32 µg/mL in the assay on C. albicans ATCC 38247; “+++ (MIC ≦ 4 μg/mL)” in the assay with S. pneumoniae ATCC 49619; “+++ (MIC ≦ 4 μg/mL)” in the assay with E. faecalis ATCC 29212; “+++ (MIC ≦ 4 μg/mL)” in the assay with E. coli ATCC 25922. Moreover, the “Minimum Inhibitory Concentration (MIC)” value in the assay with S. aureus ATCC 27660 and in the assay with S. aureus ATCC 13709 was “+++ (MIC ≦ 4 μg/mL)” throughout.
Turning to `Cn1cc(NC(=O)c2cc3ccccc3cn2)cc1C(=O)Nc1ccc(C(=O)Nc2cn(C)c(C(=O)NCCN3CCCCC3)n2)cc1` [Compound A-17], the “Minimum Inhibitory Concentration (MIC)” value in the assay with B. cereus ATCC 11778 is “+++ (MIC ≦ 4 μg/mL)”; in assay [1], “+++ (MIC ≦ 4 μg/mL)”; in the assay on C. albicans ATCC 38247, “+ (12 ≦ MIC ≦ 32 μg/mL)”; in the assay with S. pneumoniae ATCC 49619, “+++ (MIC ≦ 4 μg/mL)”; in the assay on E. faecalis ATCC 29212, “+++ (MIC ≦ 4 μg/mL)”; in the assay with E. coli ATCC 25922, “+++ (MIC ≦ 4 μg/mL)”. Moreover, the “Minimum Inhibitory Concentration (MIC)” value in the assay with S. aureus ATCC 27660 and with S. aureus ATCC 13709 was “+++ (MIC ≦ 4 μg/mL)” each time.
As to `Cn1cc(NC(=O)c2cc3ccccc3cn2)cc1C(=O)Nc1ccc(C(=O)Nc2cn(C)c(C(=O)NCCN3CCSCC3)n2)cc1` [Compound A-18], the “Minimum Inhibitory Concentration (MIC)” value in the assay with B. cereus ATCC 11778 is “+++ (MIC ≦ 4 μg/mL)”; in assay [1], “+++ (MIC ≦ 4 μg/mL)”; with C. albicans ATCC 38247 it was more than 32 µg/mL; in the assay with S. pneumoniae ATCC 49619, “+++ (MIC ≦ 4 μg/mL)”; with E. faecalis ATCC 29212, “+++ (MIC ≦ 4 μg/mL)”; in the assay on E. coli ATCC 25922, more than 32 µg/mL. Besides, the “Minimum Inhibitory Concentration (MIC)” value with S. aureus ATCC 27660 and in the assay with S. aureus ATCC 13709 was “+++ (MIC ≦ 4 μg/mL)” throughout.
For the molecule `Cn1cc(NC(=O)c2cc3ccccc3cn2)cc1C(=O)Nc1ccc(C(=O)Nc2cn(C)c(C(=O)NCCN3CCC(O)CC3)n2)cc1` [Compound A-19], the “Minimum Inhibitory Concentration (MIC)” value in the assay on B. cereus ATCC 11778 is “+++ (MIC ≦ 4 μg/mL)”; in assay [1] it was “+++ (MIC ≦ 4 μg/mL)”; in the assay on C. albicans ATCC 38247, more than 32 µg/mL; with S. pneumoniae ATCC 49619, “+++ (MIC ≦ 4 μg/mL)”; with E. faecalis ATCC 29212, “+++ (MIC ≦ 4 μg/mL)”; with E. coli ATCC 25922, “+ (12 ≦ MIC ≦ 32 μg/mL)”. In addition, the “Minimum Inhibitory Concentration (MIC)” value in the assay with S. aureus ATCC 27660 and in the assay on S. aureus ATCC 13709 was “+++ (MIC ≦ 4 μg/mL)” throughout.
As for `COC1CCN(CCNC(=O)c2nc(NC(=O)c3ccc(NC(=O)c4cc(NC(=O)c5cc6ccccc6cn5)cn4C)cc3)cn2C)CC1` [Compound A-20], the “Minimum Inhibitory Concentration (MIC)” value in the assay with B. cereus ATCC 11778 was “+++ (MIC ≦ 4 μg/mL)”; in assay [1], “+++ (MIC ≦ 4 μg/mL)”; in the assay with C. albicans ATCC 38247, “+ (12 ≦ MIC ≦ 32 μg/mL)”; in the assay on S. pneumoniae ATCC 49619 it was “+++ (MIC ≦ 4 μg/mL)”; in the assay with E. faecalis ATCC 29212, “+++ (MIC ≦ 4 μg/mL)”; in the assay on E. coli ATCC 25922, “+++ (MIC ≦ 4 μg/mL)”. Further, the “Minimum Inhibitory Concentration (MIC)” value in the assay on S. aureus ATCC 27660 and in the assay on S. aureus ATCC 13709 was “+++ (MIC ≦ 4 μg/mL)” throughout.
As to `CCN(CCNC(=O)c1nc(NC(=O)c2ccc(NC(=O)c3cc(NC(=O)c4cc5ccccc5cn4)cn3C)cc2)cn1C)CCOC` [Compound A-21], the “Minimum Inhibitory Concentration (MIC)” value in the assay with B. cereus ATCC 11778 was “+++ (MIC ≦ 4 μg/mL)”; in assay [1] it was “+++ (MIC ≦ 4 μg/mL)”; in the assay with C. albicans ATCC 38247, more than 32 µg/mL; in the assay with S. pneumoniae ATCC 49619, “+++ (MIC ≦ 4 μg/mL)”; with E. faecalis ATCC 29212 it was “+++ (MIC ≦ 4 μg/mL)”; in the assay on E. coli ATCC 25922 it was more than 32 µg/mL. The “Minimum Inhibitory Concentration (MIC)” value in the assay with S. aureus ATCC 27660 and in the assay on S. aureus ATCC 13709 was “+++ (MIC ≦ 4 μg/mL)” throughout.
Regarding `COCCN(CCNC(=O)c1nc(NC(=O)c2ccc(NC(=O)c3cc(NC(=O)c4cc5ccccc5cn4)cn3C)cc2)cn1C)CCOC` [Compound A-22], the “Minimum Inhibitory Concentration (MIC)” value in the assay with B. cereus ATCC 11778 is “+++ (MIC ≦ 4 μg/mL)”; in assay [1] it was “+++ (MIC ≦ 4 μg/mL)”; in the assay with C. albicans ATCC 38247 it was more than 32 µg/mL; in the assay with S. pneumoniae ATCC 49619 it was “+++ (MIC ≦ 4 μg/mL)”; in the assay with E. faecalis ATCC 29212, “+++ (MIC ≦ 4 μg/mL)”; in the assay on E. coli ATCC 25922 it was more than 32 µg/mL. Besides, the “Minimum Inhibitory Concentration (MIC)” value in the assay with S. aureus ATCC 27660 and in the assay with S. aureus ATCC 13709 was “+++ (MIC ≦ 4 μg/mL)” throughout.
